Source: patent US12590111B2, “Flavonoid derivative for treating dental caries” (Mühlbauer Technology GmbH, priority 2019, dated 2026)

Legend:
[1] = biological target: T1, glucosyltransferase C of S. mutans (Streptococcus mutans serotype c, UniProt P13470); experiment: Inhibition of glucosyltransferase GtfC activity (fructose release, K-FRUGL kit); type: biochemical; details: for inhibition of glucosyltransferase C activity: 30 mM sucrose, pH 6.0, 1 h, 37° C.; for remaining enzyme activity: normalized to solvent control, FIG. 2
T1 construct: purchased nzytech
T1 sequence (P13470 35-1455): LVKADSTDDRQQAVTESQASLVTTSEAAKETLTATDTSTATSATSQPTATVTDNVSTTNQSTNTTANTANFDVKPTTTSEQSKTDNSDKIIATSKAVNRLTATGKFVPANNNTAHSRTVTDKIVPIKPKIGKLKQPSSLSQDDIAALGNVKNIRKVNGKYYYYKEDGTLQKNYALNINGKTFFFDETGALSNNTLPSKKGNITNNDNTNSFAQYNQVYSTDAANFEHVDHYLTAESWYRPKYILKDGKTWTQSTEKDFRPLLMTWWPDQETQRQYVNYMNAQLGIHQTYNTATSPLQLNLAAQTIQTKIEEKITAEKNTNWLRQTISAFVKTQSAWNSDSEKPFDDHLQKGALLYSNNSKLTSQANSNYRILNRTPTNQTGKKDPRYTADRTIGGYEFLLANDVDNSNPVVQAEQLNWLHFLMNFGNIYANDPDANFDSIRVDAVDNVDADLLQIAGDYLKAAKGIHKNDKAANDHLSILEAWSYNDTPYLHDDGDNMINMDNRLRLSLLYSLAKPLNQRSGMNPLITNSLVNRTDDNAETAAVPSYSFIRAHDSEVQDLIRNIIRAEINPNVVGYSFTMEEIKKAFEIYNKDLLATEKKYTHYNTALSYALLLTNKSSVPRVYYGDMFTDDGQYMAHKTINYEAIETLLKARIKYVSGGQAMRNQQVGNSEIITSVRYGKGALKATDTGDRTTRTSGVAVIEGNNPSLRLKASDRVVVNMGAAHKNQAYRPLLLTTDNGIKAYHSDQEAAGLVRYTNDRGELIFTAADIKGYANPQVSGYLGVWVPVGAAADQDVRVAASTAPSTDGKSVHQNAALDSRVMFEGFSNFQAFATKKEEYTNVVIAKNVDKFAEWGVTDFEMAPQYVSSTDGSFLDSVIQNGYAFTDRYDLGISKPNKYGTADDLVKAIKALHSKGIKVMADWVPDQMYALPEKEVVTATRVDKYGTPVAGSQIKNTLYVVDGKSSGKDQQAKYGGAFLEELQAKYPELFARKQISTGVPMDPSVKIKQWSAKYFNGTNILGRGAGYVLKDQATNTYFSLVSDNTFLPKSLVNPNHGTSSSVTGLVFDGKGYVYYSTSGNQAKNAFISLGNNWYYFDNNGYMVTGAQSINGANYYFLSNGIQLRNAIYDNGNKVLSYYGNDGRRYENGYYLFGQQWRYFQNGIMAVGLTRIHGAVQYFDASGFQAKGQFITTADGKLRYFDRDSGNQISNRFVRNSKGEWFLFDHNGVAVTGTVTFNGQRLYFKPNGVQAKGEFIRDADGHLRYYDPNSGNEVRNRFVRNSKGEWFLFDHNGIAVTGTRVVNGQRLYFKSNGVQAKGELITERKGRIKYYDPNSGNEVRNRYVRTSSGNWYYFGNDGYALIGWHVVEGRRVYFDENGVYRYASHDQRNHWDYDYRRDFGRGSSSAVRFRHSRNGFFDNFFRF
Procedure: (§1) For this purpose, the test substance was resuspended in a DMSO/ethanol mixture (20/80%) and then diluted in the reaction mixture to the concentration to be tested (final concentration DMSO/ethanol 2/8%). The glucosyltransferase GtfC (0.3 μg, nzytech) was incubated in 100 mM potassium phosphate buffer, pH 6.0 with 30 mM sucrose for one hour at 37° C. in the presence of the test substances. As a positive control, the enzyme activity was measured in the presence of DMSO/ethanol (2/8%). […] For this purpose, the D-fructose and D-glucose assay kit from Megazyme (K-FRUGL) was used.
D-glucose and D-fructose are phosphorylated in the presence of adenosine-5-triphosphate (ATP) to glucose-6-phosphate (G-6-P) and fructose-6-phosphate (F-6-P) by the enzyme hexokinase (HK), producing adenosine 5′-diphosphate (ADP) (1), (2).
In the presence of the enzyme glucose-6-phosphate dehydrogenase (G6P-DH), G-6-P is oxidized to gluconate-6-phosphate by nicotinamide adenine dinucleotide (NADP^+). This produces reduced nicotinamide adenine dinucleotide phosphate (NADPH) (3).
The amount of NADPH formed in this reaction corresponds stoichiometrically to the amount of D-glucose. The absorption of NADPH is measured at 340 nm.
After completion of the reaction (3), F-6-P is converted to G-6-P by phosphoglucose isomerase (PGI) (4).
The G-6-P formed reacts in turn with NADP^+ to form gluconate-6-phosphate and NADPH, which leads to a further increase in absorption and correlates stoichiometrically with the amount of D-fructose.
(§2) 9 independent reaction batches were measured in triplicate and the enzyme activity was normalized to the solvent control.

[2] = Solubility in the GtfC reaction mixture; type: physicochemical; details: 6 mM; final DMSO/ethanol 2/8%
Procedure: as §1, §2

[3] = biological target: T2, GtfC enzyme activity of S. mutans (Streptococcus mutans serotype c, UniProt P13470); experiment: GtfC activity with flavonoid derivative bound to hydroxyapatite; type: biochemical; details: bound to HAP as in Example 4; activity in supernatant; FIG. 4
T2 construct: purchased nzytech
T2 sequence (P13470 35-1455): as above
Procedure: ApiBisPhos UD was bound to HAP as described in Example 4 and then incubated with GtfC as described in Example 3. The HAP was then centrifuged off and the GtfC activity in the supernatant was then determined as described in Example 3. A similar procedure was followed with the further flavonoid derivative “ApiBisPhos EG” according to the invention. […] In other words, the further example of a flavonoid derivative according to the invention (“ApiBisPhos EG”) confirms the successful functioning of the present invention as the basis for achieving the advantage according to the invention based on the adhesion of the flavonoid derivative according to the invention to the tooth surface comprising hydroxyapatite, so that the flavonoid derivative can prevent or to a great extent inhibit the formation of biofilm causing dental diseases on the tooth surfaces treated with the flavonoid derivative in the long term.

S. mutans biofilm = S. mutans biofilm formation on saliva-coated hydroxyapatite disks (crystal violet); type: cell-based; details: HAP disks pretreated with 60 μl 10 mM, 60 min; 24 h culture at 37° C.; relative to solvent control
Procedure: In this example, it was investigated whether “ApibisPhos UD” has a significant influence on S. mutans-mediated biofilm formation using hydroxyapatite discs coated with saliva under conditions simulating the oral cavity.
For this purpose, sterile hydroxyapatite disks (Clarkson Chromatography Products Inc., Ø5 mm×2 mm) were coated with saliva (Lee Biosolutions, human pooled donors) as substrate for 60 minutes and then incubated with ApiBisPhos UD (60 μl; 10 mM in DMSO/ethanol mixture, 20/80%) for 60 minutes. After washing twice with DPBS, these pretreated hydroxyapatite disks were coated with S. mutans preculture (1.5×10^8 bacteria per ml in Balmelli broth) and cultured aerobically at 37° C. for 24 hours. The grown biofilm was fixed with 100% ethanol (30 min, 25° C.), stained with 0.06% (w/v) crystal violet (60 min, 25° C.) and the dye eluted with 30% (v/v) acetic acid quantified by measuring the absorbance at 570 nm. The measured values were set in relation to the solvent control (DMSO/ethanol mixture; 20/80%), i.e. without the use of ApibisPhos UD.

[4] = pH 6, read-out: inhibition of glucosyltransferase C activity

| Compound | inhibition at 1000 µM [1, 4] | inhibition at 3000 µM [1, 4] | solubility [2] | inhibition of glucosyltransferase C activity ([1]; 1 mM) | remaining enzyme activity ([1]; 1 mM) | inhibition of glucosyltransferase C activity ([1]; 3 mM) | remaining enzyme activity ([1]; 3 mM) | inhibition of glucosyltransferase C activity ([1]; 6 mM) | inhibition of GtfC enzyme activity by substance bound to hydroxyapatite [3] | inhibition of biofilm formation on HAP surfaces (S. mutans biofilm) |
| --- | --- | --- | --- | --- | --- | --- | --- | --- | --- | --- |
| O=c1cc(-c2ccc(O)cc2)oc2cc(O)cc(O)c12 [apigenin, reference compound] | 38 ± 10% | 53 ± 6% | insufficient solubility |  |  |  |  |  |  |  |
| Mixture of 4′-(11,11-bisphosphonoundecanoxy)-7,5-dihydroxyflavone and 7-(11,11-bisphosphonoundecanoxy)-4′, 5-dihydroxyflavone [ApiBisPhos UD] |  |  |  | 72±9% | less than 30% | 90±4% | about 10% | 99±2% | inhibit the GtfC enzyme activity of S. mutans to a considerable degree | 26±9% |
| Mixture of 4′-(12,12-bisphosphono-3,6,9-trioxadodecanoxy)-7,5-dihydroxyflavone and 7-(12,12-bisphosphono-3,6,9-trioxadodecanoxy)-4′,5-dihydroxyflavone [ApiBisPhos EG] |  |  |  |  |  |  |  |  | inhibit the GtfC enzyme activity of S. mutans to a considerable degree |  |
